Values after ≈ are worked out from the molar mass of the structure shown. Where two headings read alike, the source gives them in different places.
What was measured:
[1] = test system: E. coli ATCC 25922 (AECO001); test: MIC, CLSI broth microdilution; format: cell-based; details: Escherichia coli
Description: (§1) Minimum inhibitory concentrations (MIC) were determined by reference Clinical and Laboratory Standards Institute (CLSI) broth microdilution methods per M7-A7 [2006]. Quality control ranges utilizing E. coli ATCC 25922, P. aeruginosa ATCC 27853 and S. aureus ATCC 29213, and interpretive criteria for comparator agents were as published in CLSI M100-S17 [2007]. Briefly, serial two-fold dilutions of the test compounds were prepared at 2× concentration in Mueller Hinton Broth. The compound dilutions were mixed in 96-well assay plates in a 1:1 ratio with bacterial inoculum. The inoculum was prepared by suspension of a colony from an agar plate that was prepared the previous day. Bacteria were suspended in sterile saline and added to each assay plate to obtain a final concentration of 5×10^5 CFU/mL. The plates were incubated at 35° C. for 20 hours in ambient air.

[2] = test system: P. aeruginosa ATCC 27853 (APAE001); test: MIC, CLSI broth microdilution; format: cell-based; details: for MIC: Pseudomonas aeruginosa
Description: as §1

[3] = ATCC25922, read-out: MIC AECO001, Table 1, AECO001 is ATCC25922
[4] = ATCC27853, read-out: MIC APAE001, Table 1, APAE001 is ATCC27853

SMILES | MIC [1, 3] [µg/mL] | MIC [2, 4] [µg/mL] | other results
CN[C@@H]1[C@@H](O)[C@@H](O[C@@H]2[C@@H](O)[C@H](O[C@H]3OC(CNCC(O)CO)=CC[C@H]3N)[C@@H](N)C[C@H]2NC(=O)[C@@H](O)CCN)OC[C@]1(C)O (stereo partly drawn) [Example 19, 6′-(2-Hydroxy-propanol)-1-(4-amino-2(S)-hydroxy-butyryl)-sisomicin] | < 1 | 1 to 16 (≈ 1.61 to 25.7 µM) | –
CN[C@@H]1[C@@H](O)[C@@H](O[C@@H]2[C@@H](O)[C@H](O[C@H]3OC(CNC[C@H]4C[C@H](N)C4)=CC[C@H]3NC(=N)N)[C@@H](N)C[C@H]2N)OC[C@]1(C)O [Example 107, 6′-(Methyl-trans-3-amino-cyclobutyl)-2′-guanidinium-sisomicin] | 1 to 16 (≈ 1.75 to 27.9 µM) | < 1 | –
CN[C@@H]1[C@@H](O)[C@@H](O[C@@H]2[C@@H](O)[C@H](O[C@H]3OC(CNC[C@H]4C[C@H](N)C4)=CC[C@H]3N)[C@@H](N)C[C@H]2NC(=O)[C@@H](O)CN)OC[C@]1(C)O [Example 59, 6′-(Methyl-trans-3-amino-cyclobutyl)-1-(3-amino-2(S)-hydroxy-propionyl)-sisomicin] | < 1 | 1 to 16 (≈ 1.62 to 25.9 µM) | –
CN[C@@H]1[C@@H](O)[C@@H](O[C@@H]2[C@@H](O)[C@H](O[C@H]3OC(CNC[C@@H]4C[C@H](N)CN4)=CC[C@H]3N)[C@@H](N)C[C@H]2NC(=O)[C@@H](O)CN)OC[C@]1(C)O [Example 65, 6′-(Methyl-4(S)-amino-pyrrolidin-2(S)-yl)-1-(3-amino-2(S)-hydroxy-propionyl)-sisomicin] | 1 to 16 (≈ 1.58 to 25.3 µM) | 1 to 16 (≈ 1.58 to 25.3 µM) | –
CN[C@@H]1[C@@H](O)[C@@H](O[C@@H]2[C@@H](O)[C@H](O[C@H]3OC(CNCCO)=CC[C@H]3N)[C@@H](N)C[C@H]2NC(=O)[C@H](O)CN)OC[C@]1(C)O [Example 9, 6′-(2-Hydroxy-ethyl)-1-(3-amino-2(R)-hydroxy-propionyl)-sisomicin] | 1 to 16 (≈ 1.73 to 27.6 µM) | > 16 | –
CN[C@@H]1[C@@H](O)[C@@H](O[C@@H]2[C@@H](O)[C@H](O[C@H]3OC(CNCC4CC4)=CC[C@H]3N)[C@@H](N)C[C@H]2NC(=O)C2(O)CCNC2)OC[C@]1(C)O (stereo partly drawn) [Example 41] | < 1 | 1 to 16 (≈ 1.63 to 26 µM) | –
CN[C@@H]1[C@@H](O)[C@@H](O[C@@H]2[C@@H](O)[C@H](O[C@H]3OC(CNCCO)=CC[C@H]3N)[C@@H](N)C[C@H]2NS(=O)(=O)CCN)OC[C@]1(C)O [Example 29, 6′-(2-Hydroxy-ethyl)-1-(2-amino-ethylsulfonamide)-sisomicin] | 1 to 16 (≈ 1.67 to 26.7 µM) | > 16 | –
CN[C@@H]1[C@@H](O)[C@@H](O[C@@H]2[C@@H](O)[C@H](O[C@H]3OC(CNCC4(O)CC(N)C4)=CC[C@H]3N)[C@@H](N)C[C@H]2NC(=O)C(O)C2CNC2)OC[C@]1(C)O (stereo partly drawn) [Example 83, 6′-(Methyl-3-amino-1-hydroxy-cyclobutyl)-1-(2-(azetidin-3-yl)-2-hydroxy-acetyl)-sisomicin] | 1 to 16 (≈ 1.52 to 24.3 µM) | > 16 | –
CN[C@@H]1[C@@H](O)[C@@H](O[C@@H]2[C@@H](O)[C@H](O[C@H]3OC(CNCCCN)=CC[C@H]3N)[C@@H](N)C[C@H]2NC(=O)C2(O)CCNC2)OC[C@]1(C)O (stereo partly drawn) [Example 40] | 1 to 16 (≈ 1.62 to 25.9 µM) | 1 to 16 (≈ 1.62 to 25.9 µM) | –
CN[C@@H]1[C@@H](O)[C@@H](O[C@@H]2[C@@H](O)[C@H](O[C@H]3OC(CNC[C@H]4C[C@H](O)CN4)=CC[C@H]3N)[C@@H](N)C[C@H]2NC(=O)[C@@H](O)CN)OC[C@]1(C)O [Example 53, 6′-(Methyl-4(S)-hydroxy-pyrrolidin-2(R)-yl)-1-(3-amino-2(S)-hydroxy-propionyl)-sisomicin] | 1 to 16 (≈ 1.58 to 25.2 µM) | > 16 | –
CN[C@@H]1[C@@H](O)[C@@H](O[C@@H]2[C@@H](O)[C@H](O[C@H]3OC(CNCC4CC4)=CC[C@H]3N)[C@@H](N)C[C@H]2NC(=O)[C@H](O)CCN)OC[C@]1(C)O [Example 5, 6′-(Methyl-cyclopropyl)-1-(4-amino-2(R)-hydroxy-butyryl)-sisomicin] | < 1 | 1 to 16 (≈ 1.66 to 26.5 µM) | –
CN[C@@H]1[C@@H](O)[C@@H](O[C@@H]2[C@@H](O)[C@H](O[C@H]3OC(CNCC(C)(C)CN)=CC[C@H]3N)[C@@H](N)C[C@H]2NC(=O)[C@@H](O)CN)OC[C@]1(C)O [Example 51, 6′-(2,2-Dimethyl-3-amino-propyl)-1-(3-amino-2(S)-hydroxy-propionyl)-sisomicin] | < 1 | > 16 | –
CN[C@@H]1[C@@H](O)[C@@H](O[C@@H]2[C@@H](O)[C@H](O[C@H]3OC(CN)=CC[C@H]3NC(=O)C3CCCN3)[C@@H](N)C[C@H]2NC(=O)[C@@H](O)CCN)OC[C@]1(C)O (stereo partly drawn) [Example 90] | < 1 | 1 to 16 (≈ 1.55 to 24.8 µM) | –
CN[C@@H]1[C@@H](O)[C@@H](O[C@@H]2[C@@H](O)[C@H](O[C@H]3OC(CN)=CC[C@H]3NC[C@H](C)N)[C@@H](N)C[C@H]2NC(=O)[C@@H](O)CCN)OC[C@]1(C)O [Example 95, 2′-(2(S)-Amino-propyl)-1-(4-amino-2(S)-hydroxy-butyryl)-sisomicin] | < 1 | > 16 | –
CN[C@@H]1[C@@H](O)[C@@H](O[C@@H]2[C@@H](O)[C@H](O[C@H]3OC(CN)=CC[C@H]3NCC(C)(C)CN(C)C)[C@@H](N)C[C@H]2NC(=O)[C@@H](O)CCN)OC[C@]1(C)O [Example 94, 2′-(N,N-Dimethyl-2,2-dimethyl-3-amino-propyl)-1-(4-amino-2(S)-hydroxy-butyryl)-sisomicin] | 1 to 16 (≈ 1.51 to 24.2 µM) | > 16 | –
CN[C@@H]1[C@@H](O)[C@@H](O[C@@H]2[C@@H](O)[C@H](O[C@H]3OC(CN)=CC[C@H]3NC(=O)CC3CNCCO3)[C@@H](N)C[C@H]2NC(=O)[C@@H](O)CCN)OC[C@]1(C)O (stereo partly drawn) [Example 92, 2′-(Morpholin-2-yl-acetyl)-1-(4-amino-2(S)-hydroxy-butyryl)-sisomicin] | < 1 | > 16 | –
CN[C@@H]1[C@@H](O)[C@@H](O[C@@H]2[C@@H](O)[C@H](O[C@H]3OC(CNCC4CCNCC4)=CC[C@H]3N)[C@@H](N)C[C@H]2NC(=O)[C@@H](O)CN)OC[C@]1(C)O [Example 15, 6′-(Methyl-piperidin-4-yl)-1-(3-amino-2(S)-hydroxy-propionyl)-sisomicin] | – | – | MIC ([1]; ATCC25922, Table 2, read-out: MIC E. coli): < 1 µg/mL; MIC ([1]; Table 1, AECO001 is ATCC25922, read-out: MIC AECO001): < 1 µg/mL; MIC ([2]; ATCC27853, Table 2, read-out: MIC P. aeruginosa): 1 to 16 µg/mL (≈ 1.58 to 25.3 µM)
CN[C@@H]1[C@@H](O)[C@@H](O[C@@H]2[C@@H](O)[C@H](O[C@H]3OC(CN)=CC[C@H]3NCC(N)CO)[C@@H](N)C[C@H]2NC(=O)[C@@H](O)CCN)OC[C@]1(C)O (stereo partly drawn) [Example 97, 2′-(2-Amino-propanol)-1-(4-amino-2(S)-hydroxy-butyryl)-sisomicin] | < 1 | – | MIC APAE001 ([2]; Table 1, APAE001 is ATCC27853): B (MIC's of greater than 1.0 μg/mL to 16.0 μg/mL = B)
CNCC(=O)N[C@@H]1CC=C(CN)O[C@@H]1O[C@H]1[C@H](O)[C@@H](O[C@H]2OC[C@](C)(O)[C@H](NC)[C@H]2O)[C@H](NC(=O)[C@@H](O)CCN)C[C@@H]1N [Example 86, 2′-(N-Methyl-amino-acetyl)-1-(4-amino-2(S)-hydroxy-butyryl)-sisomicin] | 1 to 16 (≈ 1.61 to 25.8 µM) | 1 to 16 (≈ 1.61 to 25.8 µM) | –
CN[C@@H]1[C@@H](O)[C@@H](O[C@@H]2[C@@H](O)[C@H](O[C@H]3OC(CNCC(C)(C)N)=CC[C@H]3N)[C@@H](N)C[C@H]2NC(=O)[C@@H](O)CN)OC[C@]1(C)O [Example 55, 6′-(2-Methyl-2-amino-propyl)-1-(3-amino-2(S)-hydroxy-propionyl)-sisomicin] | 1 to 16 (≈ 1.65 to 26.4 µM) | > 16 | –
CN[C@@H]1[C@@H](O)[C@@H](O[C@@H]2[C@@H](O)[C@H](O[C@H]3OC(CN)=CC[C@H]3NC[C@H]3C[C@H](N)C3)[C@@H](N)C[C@H]2NC(=O)[C@@H](O)CCN)OC[C@]1(C)O [Example 104, 2′-(Methyl-trans-3-amino-cyclobutyl)-1-(4-amino-2(S)-hydroxy-butyryl)-sisomicin] | < 1 | 1 to 16 (≈ 1.58 to 25.3 µM) | –
CN[C@@H]1[C@@H](O)[C@@H](O[C@@H]2[C@@H](O)[C@H](O[C@H]3OC(CNCC4CC4)=CC[C@H]3N)[C@@H](N)C[C@H]2NC(=O)[C@H](O)CN)OC[C@]1(C)O [Example 7, 6′-Methyl-cyclopropyl-1-(3-amino-2(R)-hydroxy-propionyl)-sisomicin] | < 1 | 1 to 16 (≈ 1.7 to 27.2 µM) | –
CN[C@@H]1[C@@H](O)[C@@H](O[C@@H]2[C@@H](O)[C@H](O[C@H]3OC(CNC[C@H]4C[C@H](N)C4)=CC[C@H]3N)[C@@H](N)C[C@H]2NC(=O)C(O)C2CNC2)OC[C@]1(C)O (stereo partly drawn) [Example 72, 6′-(Methyl-trans-3-amino-cyclobutyl)-1-(2-(azetidin-3-yl)-2-hydroxy-acetyl)-sisomicin] | 1 to 16 (≈ 1.55 to 24.9 µM) | 1 to 16 (≈ 1.55 to 24.9 µM) | –
CN[C@@H]1[C@@H](O)[C@@H](O[C@@H]2[C@@H](O)[C@H](O[C@H]3OC(CNCCCN)=CC[C@H]3N)[C@@H](N)C[C@H]2NC(=O)CO)OC[C@]1(C)O [Example 24, 6′-(3-Amino-propyl)-1-(2-hydroxy-acetyl)-sisomicin] | 1 to 16 (≈ 1.78 to 28.4 µM) | 1 to 16 (≈ 1.78 to 28.4 µM) | –
CN[C@@H]1[C@@H](O)[C@@H](O[C@@H]2[C@@H](O)[C@H](O[C@H]3OC(CNCCC(N)C4CC4)=CC[C@H]3N)[C@@H](N)C[C@H]2NC(=O)[C@@H](O)CN)OC[C@]1(C)O (stereo partly drawn) [Example 52, 6′-(3-Amino-3-cyclopropyl-propyl)-1-(3-amino-2(S)-hydroxy-propionyl)-sisomicin] | < 1 | 1 to 16 (≈ 1.58 to 25.3 µM) | –

Reference: US20120214760A1, “TREATMENT OF URINARY TRACT INFECTIONS WITH ANTIBACTERIAL AMINOGLYCOSIDE COMPOUNDS” (Achaogen, Inc., priority 2009, published 2012)
